Results: US20100041672A1, “USE OF QUINOLINE DERIVATIVES IN THE TREATMENT OF PAIN AND IRRITABLE BOWEL SYNDROME” (GLAXO GROUP LIMITED, priority 2007, published 2010)

Columns and labels:
rats [1] = assay: FCA induced hypersensitivity rat model (intraplantar FCA, weight bearing); format: in vivo; conditions: 1 hour post dose; for weight bearing % reversal: 10 mg/kg p.o., 24 hrs after FCA
Description: (§1) Naïve weight bearing readings were taken. The hypersensitivity to pain was measured using the Rat incapacitance tester (Linton instruments). All rats (180-220 g) received an intraplantar injection of 100 ul of FCA (Freund's complete adjuvant) into the left hind paw. The FCA was sonicated for 15 minutes prior to use. 24 hrs after administration of the FCA, pre-dose weight bearing readings were taken. All animals were then ranked and randomised for dosing according to their FCA window (predose difference in grams—naïve difference in grams). Rats with FCA window less than 30 were excluded from the study.
Animals were then dosed orally with either vehicle, SB42457 (0.01, 0.1, 1 and 10 mg/kg p.o.) or celecoxib (10 mg/kg p.o.) as appropriate according to ranking and randomisation. Animals were assessed in the weight bearing apparatus 1 hour post dose.
The study was blind and randomised by FCA window using the Latin square method. % reversals were calculated by using the naïve, pre-dose and post dose values as follows: % Reversal=[(Pre-dose−Post-dose)/(Pre-dose−Naïve)]×100.
Graphs were plotted using Prism3. Statistical analysis was carried out using ANOVA and Fischer LSD test from statistical package Statistica 6.
In this study a positive control was also tested (celecoxib).
as §1, with “(200-220” for “(180-220”
Animals were then dosed orally with vehicle, SB-792988-A (0.01, 0.1, 1 and 10 mg/kg p.o.), SB-399885-A (10 mg/kg p.o.) or celecoxib (10 mg/kg p.o.) as appropriate according to ranking and randomisation. Animals were assessed in the weight bearing apparatus 1 hour post dose.
Graphs and were plotted using Prism3. Statistical analysis was carried out using ANOVA and Fischer LSD test from statistical package Statistica 6.

male Sprague Dawley rats = assay: rat intra rectal mustard oil model of visceral pain; format: in vivo; conditions: behaviours counted 25 minutes
Description: All behavioural responses consistent with the presence of pain were determined following intra rectal injection of mustard oil in male Sprague Dawley rats. Typical behavioural responses consistent with the presence of pain following intra-colonic mustard oil injection include: arching, abdominal lifting, abdominal tensing, stretching, extending the rear leg (when lying down), raising and lowering the testicles, tip-toeing and writhing.
Male Sprague Dawley rats (130 g-160 g) were briefly sedated with 50% oxygen/50% carbon dioxide and 0.2 ml of 3% mustard oil injected into the colorectum, 1.5 cm from the anus. The anus was plugged with vaseline and animals placed in observational cages to which they had previously been acclimatised for 45 minutes prior to mustard oil injection. The number of visceral pain related behaviours, which consisted primarily of abdominal arching, were counted over a 25 minute period and the animals culled by cervical dislocation.
In separate studies, the effects of alosetron (0.1, 0.3 and 1.0 mg/kg n=10 per group), gabapentin (10, 30 and 100 mg/kg n=10 per group) and amitriptyline (3, 10 and 30 mg/kg n=9-10 per group) or vehicle (saline for alosetron and amitriptyline 10% 1-Methyl-2-pyrolidone in saline for gabapentin n=10 per study) given sub cutaneously 15 minutes prior to injection of 3% mustard oil were examined on pain behaviour. Results in FIGS. 4, 5 and 6 are expressed as mean±sem percentage of behaviours compared to vehicle treated animals and were statistically compared to vehicle treated animals using a one way ANOVA with Dunnett's comparison, p<0.05 considered significant.
The effect of SB742457 (0.03, 0.1, 1.0, 3.0 and 10 mg/kg, n=10 per group for the 0.03, 0.1 and 10 mg/kg groups, and n=20 for the 1.0 and 3.0 mg/kg groups) or vehicle (saline n=20) given orally 60 minutes prior to injection of mustard oil (3% mustard oil, 70% ethanol in saline) were examined on pain behaviour. The total number of visceral pain related behaviours, which consisted primarily of abdominal arching, were counted over a 25 minute period and the animals culled by cervical dislocation. Behaviours were normalised as the percentage of the vehicle group mean and expressed as mean+/−sem. Data was combined from two studies and normalised as the percentage of the vehicle group mean for each individual study and expressed as mean+/−sem for both studies. Percentage of behaviours compared to vehicle treated animals were analysed statistically using a one way ANOVA with Dunnett's comparison, p<0.05 considered significant, FIG. 10.
The effect of SB792988A (0.03, 0.1, 0.3, 1.0, 3.0 and 10 mg/kg, n=9 for 1.0 mg/kg, n=10 per group for the 0.03, 0.1 and 3.0 mg/kg groups, n=20 per group for the 0.3 and 10 mg/kg groups) or vehicle (saline n=20) given orally 60 minutes prior to injection of mustard oil (3% mustard oil, 70% ethanol in saline) were examined on pain behaviour. The total number of visceral pain related behaviours, which consisted primarily of abdominal arching, were counted over a 25 minute period and the animals culled by cervical dislocation. Behaviours were normalised as the percentage of the vehicle group mean and expressed as mean+/−sem. Data was combined from two studies and normalised as the percentage of the vehicle group mean for each individual study and expressed as mean+/−sem for both studies. Percentage of behaviours compared to vehicle treated animals were analysed statistically using a one way ANOVA with Dunnett's comparison, p<0.05 considered significant, FIG. 11.

rats [2] = assay: Chronic Constriction Injury (CCI) model of neuropathic pain in rats (mechanical allodynia, Von Frey hairs); format: in vivo, rat; conditions: 30 mg/kg b.i.d. po
Description: Under Isoflurane anaesthesia, the sciatic nerve in the left leg of the rat was exposed at mid thigh level and 4 loose ligatures of Chromic 4.0 gut tied around it. The wound was closed and secured with staples. The Sham operated animals underwent the same surgical technique except that the nerve was not ligated. […] The presence of mechanical (tactile) allodynia was assessed using the manual application of Von Frey hair monofilaments (Stoelting, Wood Dale, Ill., USA). Animals were placed in clear Perspex boxes on a raised perforated metallic platform, from below which the monofilaments were applied in ascending order to the plantar region of the hind paw (range: 1.4 g-26 g). Each hair was applied for approx. 3-5 seconds until a withdrawal response was observed. The lowest hair to give a withdrawal was recorded as the response after confirmation with reapplication of lower and/or higher hairs within the range tested.
All data are expressed as mean±s.e.m. Statistical analysis was carried out using Repeated Measures ANOVA (Statistica Version 6) to compare the vehicle treated groups with the drug treated groups (P<0.05 considered significant). Area Under Curve (AUC) calculations were performed within Excel and statistical analysis was carried out using a one-way ANOVA followed by Fischer LSD post-hoc test (Statistica Version 6) to compare the vehicle treated CCI and Sham groups with the drug treated groups (P<0.05 considered significant). Data recorded in Excel (Microsoft XP) and graphs produced in GraphPad Prism (Version 4).
By 8 days post-surgery neuropathy was beginning to develop as mechanical allodynia (assessed using mVFHs) was evident in all CCI operated groups compared to the Sham operated animals. This was maintained as a stable baseline until day 23 post-surgery (FIG. 12), when the animals were randomised and then chronically dosed with either SB742457 (10 mg/kg b.i.d. po), gabapentin (30 mg/kg b.i.d. po) or vehicle (1% methylcellulose; b.i.d. po) for 8 days (days 26-33 post-surgery). […] Three days after cessation of treatment the withdrawal thresholds of the drug treated groups had decreased back towards vehicle treated baseline levels.

Random Hooded rats = assay: rat joint pain model of chronic inflammatory pain (intra-articular FCA, hind paw weight bearing); format: in vivo; conditions: for Statistics for hypersensitivity data (weight bearing), significance vs vehicle, Day 14: Day 14 post FCA; for Statistics for hypersensitivity data (weight bearing), significance vs vehicle, Day 15: Day 15 post FCA; for Statistics for hypersensitivity data (weight bearing), significance vs vehicle, Day 17: Day 17 post FCA
Description: Random Hooded rats, 150-180 g, obtained from Charles River UK, were anaesthetised under gaseous anaesthetic and the area surrounding the left and right knee joint shaved and cleaned as for aseptic surgery. Animals were injected with 150 μl of FCA into the left knee joint (intra-articular injection). Animals were immediately allowed to recover from anaesthetic in a warmed/oxygenated environment until being returned to their home cage on paper bedding. No further post-op care was provided.
(§2) Rats were tested prior to surgery and from 18 h post FCA (minimum of once weekly) for weight bearing (g) and joint diameter (mm). Weight bearing is measured by the animal's ability to place body weight across both hind paws on a Dual Channel Weight Averager which was calibrated each day prior to use using a 10 g weight (Rat capacitance tester—Linton Instruments). Hind paw weight bearing data was calculated and expressed as the percentage of the contralateral paw.
All data were expressed as mean±s.e.m.
(§3) Prior to FCA intra-articular injection into the left knee, rats display even weight bearing. By day 1 post-insult weight bearing had shifted such that the majority of the body weight was transmitted through the contralateral limb. By day 10 this effect was maintained and at this point animals were randomised across treatment groups. Once daily dosing with vehicle, SB742457 or celecoxib began on day 13 and continued up to and including day 17.
as §2, with “100” for “10”
as §3, with “SB792988A” for “SB742457”, “17. […] AUC was calculated using Microsoft Excel.” for “17.”

[3] = 10 mg/kg sub cutaneously 15 minutes prior to 3% mustard oil
[4] = 30 mg/kg sub cutaneously 15 minutes prior to 3% mustard oil
[5] = 30 mg/kg oral once daily from day 13, SB742457 study
[6] = 30 mg/kg oral once daily from day 13, SB792988A study

## COc1ccc(S(=O)(=O)Nc2cc(Cl)cc(Cl)c2OC)cc1N1CCNCC1.Cl [SB399885A, N-(3,5-dichloro-2-methoxy-phenyl)-4-methoxy-3-piperazin-1-yl-benzenesulfonamide hydrochloride, reference compound]
Rats [1]; Table 7
  weight bearing % reversal: 15.26 ± 5.70%
Rats [1]; p.o., intraplantar FCA
  effect on FCA induced hypersensitivity: no effect

## Cc1[nH]cnc1CN1CCc2c(c3ccccc3n2C)C1=O [alosetron, reference compound]
Male Sprague Dawley rats; 0.1 mg/kg sub cutaneously 15 minutes prior to 3% mustard oil
  reduction in behaviours compared to vehicle treated animals: 56%
Male Sprague Dawley rats; 0.3 mg/kg sub cutaneously 15 minutes prior to 3% mustard oil
  reduction in behaviours compared to vehicle treated animals: 56%
Male Sprague Dawley rats; 1.0 mg/kg sub cutaneously 15 minutes prior to 3% mustard oil
  reduction in behaviours compared to vehicle treated animals: 54%

## NCC1(CC(=O)O)CCCCC1 [gabapentin, reference compound]
Rats [2]; after 5 days of dosing
  reversal of mechanical allodynia after 5 days of dosing: not significantly different to Sham levels
Rats [2]; after 8 days of dosing
  reversal of mechanical allodynia after 8 days of dosing: maximal reversal (P<0.001) back to Sham levels
Male Sprague Dawley rats; [3]
  reduction in behaviours compared to vehicle treated animals: 28%
Male Sprague Dawley rats; [4]
  reduction in behaviours compared to vehicle treated animals: 50%
Male Sprague Dawley rats; 100 mg/kg sub cutaneously 15 minutes prior to 3% mustard oil
  reduction in behaviours compared to vehicle treated animals: 69%

## CN(C)CCC=C1c2ccccc2CCc2ccccc21 [amitriptyline, reference compound]
Male Sprague Dawley rats; 3 mg/kg sub cutaneously 15 minutes prior to 3% mustard oil
  reduction in behaviours compared to vehicle treated animals: 43%
Male Sprague Dawley rats; [3]
  reduction in behaviours compared to vehicle treated animals: 73%
Male Sprague Dawley rats; [4]
  reduction in behaviours compared to vehicle treated animals: 91%

## Cc1ccc(-c2cc(C(F)(F)F)nn2-c2ccc(S(N)(=O)=O)cc2)cc1 [celecoxib, reference compound]
Random Hooded rats; 30 mg/kg oral once daily days 13-17, AUC, SB742457 study
  Statistics for hypersensitivity data, significance vs vehicle, AUC: *** (*** = p < 0.001)
Random Hooded rats; 30 mg/kg oral once daily from day 13, Day 13 post FCA, SB742457 study
  Statistics for hypersensitivity data (weight bearing), significance vs vehicle, Day 13: * (* = p < 0.05)
Random Hooded rats; [5]
  Statistics for hypersensitivity data (weight bearing), significance vs vehicle, Day 14: *** (*** = p < 0.001)
  Statistics for hypersensitivity data (weight bearing), significance vs vehicle, Day 15: *** (*** = p < 0.001)
  Statistics for hypersensitivity data (weight bearing), significance vs vehicle, Day 17: *** (*** = p < 0.001)
Random Hooded rats; [6]
  Statistics for hypersensitivity data (weight bearing), significance vs vehicle, Day 14: * (* = p < 0.05)
  Statistics for hypersensitivity data (weight bearing), significance vs vehicle, Day 15: *** (*** = p < 0.001)
  Statistics for hypersensitivity data (weight bearing), significance vs vehicle, Day 17: *** (*** = p < 0.001)
Random Hooded rats; 30 mg/kg oral once daily from day 13, Day 16 post FCA, SB792988A study
  Statistics for hypersensitivity data (weight bearing), significance vs vehicle, Day 16: *** (*** = p < 0.001)
Rats [1]; Table 5
  weight bearing % reversal: 74.81 ± 8.79%
Rats [1]; Table 7
  weight bearing % reversal: 73.00 ± 6.01%
